Assays:
W2 strain [1] = assay: parasite proliferation assay in infected red blood cells (SYBR Green I), W2 strain; format: cell-based, Plasmodium falciparum; settings: Plasmodium falciparum, Erythrocyte
From the text: (§1) Compounds of the invention can be assayed to measure their capacity to inhibit proliferation of parasitemia in infected red blood cells. The proliferation is quantified by the addition of SYBR Green I (INVITROGEN)® dye which has a high affinity for double stranded DNA.

3D7 P. falciparum strain = assay: parasite proliferation assay in infected red blood cells (SYBR Green I); format: cell-based, Plasmodium falciparum; settings: Plasmodium falciparum, 3D7, Erythrocyte, 3D7 strain; read-out: EC50 3D7 strain
Procedure, shortened: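 P. falciparum 3D7 grown in O+ human erythrocytes to 3–8% parasitemia and exposed to compounds. Proliferation read as the increase in parasite DNA. Detection used SYBR Green I in saponin/triton-X/EDTA lysis buffer, with overnight lysis at room temperature.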

W2 strain [2] = assay: parasite proliferation assay in infected red blood cells (SYBR Green I), W2 strain; format: cell-based; settings: Erythrocyte
From the text: as §1

| Compound | EC50 (W2 strain [1]) | EC50 (3D7 P. falciparum strain) | EC50 (W2 strain [2]) | EC50 (W2 strain [2]; Plasmodium falciparum) |
| --- | --- | --- | --- | --- |
| Cc1ccc(Nc2c(-c3cccc(F)c3)nc3n2C(C)(C)CN(C(=O)C(C)(C)N)C3)cc1 [Compound 593] | 3940 nM | 5060 nM | – | – |
| Cc1ccc(Nc2c(-c3ccc(F)cc3)nc3n2CCN(C(=O)CN)C3(C)C)cc1Cl [Compound 532] | 9 nM | 20 nM | – | – |
| C[C@@H]1NC(=O)Cn2c1nc(-c1ccc(F)cc1)c2Nc1ccc(Cl)c(F)c1 [Compound 559] | 642 nM | 530 nM | – | – |
| CC1(C)NC(=O)Cn2c1nc(-c1ccc(F)cc1)c2Nc1ccc(Cl)c(F)c1 [Compound 511] | 65 nM | 40 nM | – | – |
| CCN(c1ccc(Cl)c(F)c1)c1c(-c2ccc(F)cc2)nc2n1CCNC2 [Compound 413] | 131 nM | 180 nM | – | – |
| N[C@H](C(=O)N1CCn2c(nc(-c3ccc(F)cc3)c2Nc2ccc(Cl)c(F)c2)C1)c1ccc(F)cc1 [Compound 490] | 33 nM | 50 nM | – | – |
| Cc1ccc(Nc2c(-c3ccc(F)cc3)nc3n2CCN(C(=O)CN)C3(C)C)cc1 [Compound 409] | 6 nM | 10 nM | – | – |
| CC1(C)NCCn2c1nc(-c1ccc(F)cc1)c2Nc1ccc(F)cc1 [Compound 493] | 5 nM | 4 nM | – | – |
| CC[C@H](C)[C@H](N)C(=O)N1CCn2c(nc(-c3ccc(F)cc3)c2Nc2ccc(Cl)cc2)C1 [Compound 454] | 8 nM | 20 nM | – | – |
| Cc1ccc(Nc2c(-c3ccc(F)cc3)nc3n2CCN(C(=O)[C@@](C)(N)CO)C3)cc1 [Compound 504] | 93 nM | 90 nM | – | – |
| N[C@@H](CC1CCC1)C(=O)N1CCn2c(nc(-c3ccc(F)cc3)c2Nc2ccc(F)c(F)c2)C1 [Compound 429] | 36 nM | 20 nM | – | – |
| CC1(C)NCCn2c1nc(-c1ccc(F)cc1)c2Nc1cccc(C(F)(F)F)c1 [Compound 515] | 34 nM | 40 nM | – | – |
| CC1(C)c2nc(-c3ccc(F)cc3)c(Nc3ccc(F)c(C#N)c3)n2CCN1C(=O)CN [Compound 522] | 2 nM | 1.7 nM | – | – |
| CC1(C)NC(=O)Cn2c1nc(-c1ccc(F)cc1)c2Nc1ccc(F)c(F)c1 [Compound 509] | 134 nM | 130 nM | – | – |
| CN1CCN(Cc2cccc(Nc3c(-c4ccc(F)cc4)nc4n3CC(=O)NC4(C)C)c2)CC1 [Compound 569] | 7920 nM | 9270 nM | – | – |
| C[C@H](N)C(=O)N1CCn2c(nc(-c3ccc(F)cc3)c2Nc2ccc(Cl)cc2)C1 [Compound 448] | 22 nM | 20 nM | – | – |
| CC1(C)c2nc(-c3ccc(F)cc3)c(Nc3cccc(F)c3)n2CCN1C(=O)C(F)(F)F [Compound 516] | 26 nM | 30 nM | – | – |
| COc1ccc(CN2Cc3nc(-c4cccc(F)c4)c(Nc4ccc(C)cc4)n3C(C)(C)C2)cc1 [Compound 582] | 5920 nM | 5560 nM | – | – |
| N[C@@H](Cc1ccc(F)c(F)c1)C(=O)N1CCn2c(nc(-c3ccc(F)cc3)c2Nc2ccc(F)cc2)C1 [Compound 475] | 30 nM | 40 nM | – | – |
| Cc1ccc(Nc2c(-c3ccc(F)cc3)nc3n2CCN(C(=O)[C@@H](N)Cc2cscn2)C3)cc1 [Compound 486] | 16 nM | 30 nM | – | – |

| Compound | EC50 (W2 strain [1]) | EC50 (3D7 P. falciparum strain) | EC50 (W2 strain [2]) | EC50 (W2 strain [2]; Plasmodium falciparum) |
| --- | --- | --- | --- | --- |
| CC1(C)Cn2c(nc(-c3ccc(F)cc3)c2Nc2ccc(C#N)c(F)c2)CN1 [Compound 581] | 668 nM | 650 nM | – | – |
| N[C@@H](Cc1ccc(F)cc1)C(=O)N1CCn2c(nc(-c3ccc(F)cc3)c2Nc2ccc(F)c(F)c2)C1 [Compound 443] | 55 nM | 50 nM | – | – |
| Cc1ccc(Nc2c(-c3ccc(F)cc3)nc3n2CCNC3(C)C)cc1C#N [Compound 527] | 6 nM | 4 nM | – | – |
| Cc1cc(Nc2c(-c3ccc(F)cc3)nc3n2CCN(C(=O)C(C)(C)N)C3(C)C)ccc1F [Compound 588] | 4 nM | 10 nM | – | – |
| Cc1ccc(Nc2c(-c3ccc(F)cc3)nc3n2CC(=O)NC3(C)C)cc1Cl [Compound 546] | 52 nM | 30 nM | – | – |
| Cc1ccc(Nc2c(-c3ccc(F)cc3)nc3n2CCN(C(=O)[C@H](C)NCc2ccccc2)C3)cc1 [Compound 403] | 543 nM | 510 nM | – | – |
| Cc1ccc(Nc2c(-c3cccc(F)c3)nc3n2C(C)(C)CN(C(=O)[C@@H](O)C(C)C)C3)cc1 [Compound 592] | 5260 nM | 6010 nM | – | – |
| CC(C)[C@H](O)C(=O)N1CCn2c(nc(-c3ccc(F)cc3)c2Nc2ccc(F)c(F)c2)C1 [Compound 440] | 28 nM | 20 nM | – | – |
| CC1(C)NCCn2c1nc(-c1ccc(F)cc1)c2Nc1cccc(F)c1 [Compound 514] | 24 nM | 30 nM | – | – |
| CC(C)N(c1cccc(F)c1)c1c(-c2ccc(F)cc2)nc2n1CCNC2 [Compound 445] | 3270 nM | 2600 nM | – | – |
| CC1(C)NC(=O)Cn2c1nc(-c1ccc(F)cc1)c2Nc1ccc(F)c(C#N)c1 [Compound 537] | 8340 nM | 11900 nM | – | – |
| CC(C)C[C@H](N)C(=O)N1CCn2c(nc(-c3ccc(F)cc3)c2Nc2ccc(F)c(F)c2)C1 [Compound 439] | 40 nM | 30 nM | – | – |
| Cc1ccc(Nc2c(-c3ccc(F)cc3)nc3n2CCN(C(=O)C(C)(N)CC(C)C)C3)cc1 (stereo not shown) [Compound 503] | 95 nM | 120 nM | – | – |
| CN1CCN(c2ccc(Nc3c(-c4ccc(F)cc4)nc4n3CC(=O)NC4(C)C)cc2)CC1 [Compound 568] | > 11300 nM | > 8040 nM | – | – |
| CC(C)(C)OC(=O)NCC(=O)N1CCn2cc(-c3ccc(F)cc3)nc2C1 [Compound 540, tert-butyl 2-(2-(4-fluorophenyl)-5,6-dihydroimidazo[1,2-a]pyrazin-7(8H)-yl)-2-oxoethylcarbamate] | 9810 nM | 8420 nM | – | – |
| CC1(C)NC(=O)Cn2c1nc(-c1ccc(F)cc1)c2Nc1cccc(F)c1 [Compound 501] | 305 nM | 400 nM | – | – |
| Cc1ccc(Nc2c(-c3cc(F)ccc3F)nc3n2CCN(C(=O)CN)C3)cc1 [Compound 418] | 146 nM | 90 nM | – | – |
| CC1(C)NC(=O)Cn2c1nc(-c1ccc(F)cc1)c2Nc1ccc(F)c(Cl)c1 [Compound 513] | 195 nM | 170 nM | – | – |
| CC1(C)c2nc(-c3ccc(F)cc3)c(Nc3cc(F)c(F)c(F)c3)n2CCN1C(=O)CN [Compound 554] | 7 nM | – | – | – |
| CC(C)(N)C(=O)N1CCn2c(nc(-c3ccc(F)cc3)c2-c2ccc(F)cc2)C1 [Compound 31] | – | 13100 nM | 6890 nM | – |

| Compound | EC50 (W2 strain [1]) | EC50 (3D7 P. falciparum strain) | EC50 (W2 strain [2]) | EC50 (W2 strain [2]; Plasmodium falciparum) |
| --- | --- | --- | --- | --- |
| O=C(CN1CCC(F)(F)C1)N1CCn2c(nc(-c3ccc(F)cc3)c2Nc2ccc(F)cc2)C1 [Compound 57] | – | 310 nM | 294 nM | – |
| CC1(C)CN(C(=O)CN)Cc2nc(-c3cccc(F)c3)c(Nc3ccc(F)cc3)n21 [Compound 621] | – | 40 nM | – | 45 nM |
| CCC(=O)Nc1ccc(C[C@H](N)C(=O)N2CCn3c(nc(-c4cccc(F)c4)c3Nc3ccc(Cl)c(F)c3)C2)cc1 [Compound 259] | – | 5320 nM | 3020 nM | – |
| CC1(C)c2nc(-c3ccc(F)cc3)c(Nc3ccc(F)c(C(F)(F)F)c3)n2CCN1C(=O)CN [Compound 657] | – | 618 nM | – | 1090 nM |
| COc1ccc(NC(C)(C)C(=O)N2CCn3c(nc(-c4ccc(F)cc4)c3Nc3ccc(C)cc3)C2)cc1 [Compound 364] | – | 4950 nM | 3740 nM | – |
| Cc1ccc(Nc2c(-c3ccc(F)cc3)nc3n2CCN(Cc2ccc(S(C)(=O)=O)cc2)C3)cc1 [Compound 179] | – | 4790 nM | 1070 nM | – |
| O=C(CNc1ccccc1)N1CCn2c(nc(-c3ccc(F)cc3)c2Nc2ccc(Cl)c(F)c2)C1 [Compound 305] | – | 90 nM | 94 nM | – |
| CC1(C)CN(C(=O)CN)Cc2nc(-c3cccc(F)c3)c(Nc3ccc(Cl)c(F)c3)n21 [Compound 623] | – | 30 nM | – | 32 nM |
| CC1(C)c2nc(-c3ccc(F)cc3)c(Nc3ccc(F)cc3)n2CCN1C(=O)CNCCCNC(=O)CCc1ccccc1 [Compound 730, N-(3-(2-(2-(4-fluorophenyl)-3-(4-fluorophenylamino)-8,8-dimethyl-5,6-dihydroimidazo[1,2-a]pyrazin-7 (8H)-yl)-2-oxoethylamino)propyl)-3-phenylpropanamide] | – | 1360 nM | – | 474 nM |
| NC(C(=O)N1CCn2c(nc(-c3ccc(F)cc3)c2Nc2ccc(Cl)c(F)c2)C1)c1ccc(Cl)c(Cl)c1 (stereo not shown) [Compound 365] | – | 610 nM | 260 nM | – |
| CC1(C)c2nc(-c3ccc(F)cc3)c(NC3CCCC3)n2CCN1C(=O)CN [Compound 670] | – | 402 nM | – | 711 nM |
| Cc1ccc(Nc2c(-c3ccc(F)cc3)nc3n2CCN(C(=O)C(C)(C)N)C3)cc1C#N [Compound 630] | – | 35 nM | – | 85 nM |
| CCCC(=O)N[C@H](C(=O)N1CCn2c(nc(-c3ccc(F)cc3)c2Nc2ccc(C)cc2)C1)c1ccccc1 [Compound 291] | – | 1200 nM | 567 nM | – |
| CCN1CCC(CC(=O)N2CCn3c(nc(-c4ccc(F)cc4)c3Nc3ccc(Cl)c(F)c3)C2)CC1 [Compound 304] | – | 3210 nM | 2950 nM | – |
| Cc1ccc(Nc2c(-c3ccc(F)cc3)nc3n2CCN(C(=O)C(Nc2ccc(C(F)(F)F)cc2Cl)C(C)C)C3)cc1 (stereo not shown) [Compound 355] | – | 2810 nM | 2270 nM | – |
| CCCC(=O)Nc1ccc(C[C@H](N)C(=O)N2CCn3c(nc(-c4ccc(F)cc4)c3Nc3ccc(C)cc3)C2)cc1 [Compound 197] | – | 4160 nM | 1040 nM | – |
| CC1(C)c2nc(-c3ccc(F)cc3)c(NC3CCC(C(F)(F)F)CC3)n2CCN1C(=O)CN (stereo not shown) [Compound 662] | – | 38 nM | – | 33 nM |
| Cc1ccc(Nc2c(-c3ccc(F)cc3)nc3n2CCN(C(=O)[C@@H](NC(=O)CCOCCOCCOCCOCCNC(=O)CCCCC2SCC4NC(=O)NC42)c2ccccc2)C3)cc1 (stereo partly shown) [Compound 298] | – | 610 nM | 193 nM | – |
